Measured values: patent US20250213558A1, “T-TYPE CALCIUM CHANNEL MODULATORS COMPRISING A PIPERAZINE OR 1,4-DIAZEPANE CORE AND METHODS OF USE THEREOF” (Praxis Precision Medicines, Inc., priority 2022, published 2025)
pIC50: −log10 of the molar value. Read-outs that look alike come from different tables or passages of the source.

Molecular target: T1, Human Cav3.1 calcium channel (Homo sapiens, UniProt O43497)
T1 construct: expressed in transfected cells; host or cells: HEK-293 natClytin/TASK1+Cav3.1 cell line
T1 sequence (O43497 whole entry): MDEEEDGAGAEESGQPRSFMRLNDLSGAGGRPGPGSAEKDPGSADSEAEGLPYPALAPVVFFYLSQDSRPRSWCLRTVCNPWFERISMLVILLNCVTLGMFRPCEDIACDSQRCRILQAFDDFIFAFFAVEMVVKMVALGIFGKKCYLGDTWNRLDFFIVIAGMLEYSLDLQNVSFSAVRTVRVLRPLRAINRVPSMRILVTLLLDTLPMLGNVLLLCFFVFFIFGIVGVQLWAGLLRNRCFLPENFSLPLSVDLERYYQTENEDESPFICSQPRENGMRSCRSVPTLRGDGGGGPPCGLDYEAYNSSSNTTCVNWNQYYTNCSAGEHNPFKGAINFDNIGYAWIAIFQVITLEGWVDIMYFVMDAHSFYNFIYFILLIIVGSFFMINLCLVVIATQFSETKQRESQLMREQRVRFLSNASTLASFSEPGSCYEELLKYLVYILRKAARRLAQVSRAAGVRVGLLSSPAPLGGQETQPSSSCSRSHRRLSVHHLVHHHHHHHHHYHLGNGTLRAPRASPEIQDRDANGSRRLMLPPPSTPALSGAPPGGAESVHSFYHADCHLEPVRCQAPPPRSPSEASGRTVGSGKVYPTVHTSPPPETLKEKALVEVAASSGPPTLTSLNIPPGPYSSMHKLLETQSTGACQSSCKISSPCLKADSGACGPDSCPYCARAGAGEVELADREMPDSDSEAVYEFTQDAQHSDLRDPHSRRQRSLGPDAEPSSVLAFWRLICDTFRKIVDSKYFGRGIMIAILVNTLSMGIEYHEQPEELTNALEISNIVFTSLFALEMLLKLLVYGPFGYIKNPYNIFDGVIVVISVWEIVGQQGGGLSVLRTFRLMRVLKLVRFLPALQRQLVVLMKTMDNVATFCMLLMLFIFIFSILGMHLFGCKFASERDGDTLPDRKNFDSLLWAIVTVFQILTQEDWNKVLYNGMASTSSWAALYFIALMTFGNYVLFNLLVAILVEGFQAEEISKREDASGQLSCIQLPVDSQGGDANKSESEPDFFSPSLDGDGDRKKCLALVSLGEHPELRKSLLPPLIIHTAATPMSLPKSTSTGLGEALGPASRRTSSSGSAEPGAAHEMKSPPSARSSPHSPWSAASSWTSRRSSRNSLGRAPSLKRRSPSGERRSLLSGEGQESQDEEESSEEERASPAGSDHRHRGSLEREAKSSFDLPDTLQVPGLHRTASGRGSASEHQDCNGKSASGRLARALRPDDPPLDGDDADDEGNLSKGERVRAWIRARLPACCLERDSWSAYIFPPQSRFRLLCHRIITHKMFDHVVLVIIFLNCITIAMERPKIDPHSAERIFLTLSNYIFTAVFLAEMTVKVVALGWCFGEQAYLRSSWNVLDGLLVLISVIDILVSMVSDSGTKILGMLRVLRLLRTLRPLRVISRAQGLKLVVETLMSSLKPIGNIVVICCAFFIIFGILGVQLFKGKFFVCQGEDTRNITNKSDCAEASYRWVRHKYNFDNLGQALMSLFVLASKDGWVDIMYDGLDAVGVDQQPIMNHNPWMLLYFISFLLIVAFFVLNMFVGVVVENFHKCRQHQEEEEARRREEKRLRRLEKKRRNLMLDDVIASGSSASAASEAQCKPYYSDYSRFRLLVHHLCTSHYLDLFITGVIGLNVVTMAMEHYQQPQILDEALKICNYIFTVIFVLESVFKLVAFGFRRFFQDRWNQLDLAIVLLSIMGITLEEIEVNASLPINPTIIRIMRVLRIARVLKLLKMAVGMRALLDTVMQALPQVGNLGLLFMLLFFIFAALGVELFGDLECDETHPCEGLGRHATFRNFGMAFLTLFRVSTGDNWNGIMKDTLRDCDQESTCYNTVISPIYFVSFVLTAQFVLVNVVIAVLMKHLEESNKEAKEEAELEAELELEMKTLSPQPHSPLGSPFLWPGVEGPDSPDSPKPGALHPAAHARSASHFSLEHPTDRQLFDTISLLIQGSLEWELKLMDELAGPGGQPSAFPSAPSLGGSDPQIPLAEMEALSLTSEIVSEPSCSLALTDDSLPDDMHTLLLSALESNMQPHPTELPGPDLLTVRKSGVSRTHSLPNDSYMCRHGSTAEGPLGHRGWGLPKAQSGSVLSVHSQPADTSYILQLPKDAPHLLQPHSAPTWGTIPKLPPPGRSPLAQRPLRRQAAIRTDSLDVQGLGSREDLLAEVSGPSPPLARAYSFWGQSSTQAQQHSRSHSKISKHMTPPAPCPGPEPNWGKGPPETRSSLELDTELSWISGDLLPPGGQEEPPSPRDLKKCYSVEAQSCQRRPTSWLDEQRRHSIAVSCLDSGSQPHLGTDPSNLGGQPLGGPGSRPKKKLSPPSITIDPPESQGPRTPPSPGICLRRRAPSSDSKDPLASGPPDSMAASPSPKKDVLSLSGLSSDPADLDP
Test: Human Cav3.1 calcium channel patch clamp assay (SyncroPatch 384PE; single point and IC50, voltage dependent block)
Format: cell-based
Details: for % Inhibition (Single Point Data): Testing Conc 1.25, patch clamp
In short: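 Automated whole-cell patch clamp at room temperature, cells held at −120 mV; 100 ms step to −20 mV (resting block), then 1600 ms at −65 mV and a second −20 mV step (voltage-dependent block), every 15 s. Peak currents averaged over last 3 sweeps; % inhibition relative to nickel-sensitive current.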

[1] = HEK-293 natClytin/TASK1+Cav3.1 cell line
[2] = voltage dependent block (VDB), HEK-293 natClytin/TASK1+Cav3.1 cell line, read-out: Cav3.1 IC50

Compound: Cc1cccc2[nH]c(CN3CC4CCC(C3)N4CC(=O)NC(C)(C)C)nc12 [Compound 194]
- % Inhibition (Single Point Data) [1]: 97.438%

Compound: CC(C)(C)NC(=O)CN1C2CCC1CN(CCc1nc3c(Cl)cc(F)cc3[nH]1)C2 [Compound 195]
- % Inhibition (Single Point Data) [1]: 44.852%
- pIC50 [2]: 5.94

Compound: CC(C)(C)NC(=O)CN1C2CCC1CN(Cc1nc(-c3ccccc3)c[nH]1)C2 [Compound 196]
- % Inhibition (Single Point Data) [1]: 83.677%

Compound: CC(C)(C)NC(=O)CN1C2CCC1CN(Cc1c[nH]c(-c3ccccc3)n1)C2 [Compound 197]
- % Inhibition (Single Point Data) [1]: 45.013%
- pIC50 [2]: 5.81

Compound: Cc1cccc2[nH]c(C(C)N3CC4CCC(C3)N4CC(=O)NC(C)(C)C)nc12 (centres unmarked) [Compound 198]
- % Inhibition (Single Point Data) [1]: 71.858%
- pIC50 [2]: 6.38

Compound: Cc1cccc2[nH]c(C(C)N3CC4CC(C3)N4CC(=O)NC(C)(C)C)nc12 (centres unmarked) [Compound 199]
- % Inhibition (Single Point Data) [1]: 54.078%
- pIC50 [2]: 6.06

Compound: CC(c1nc2c(Cl)cc(F)cc2[nH]1)N1CC2CC(C1)N2CC(=O)NC(C)(C)C (centres unmarked) [Compound 200]
- % Inhibition (Single Point Data) [1]: 93.175%

Compound: CC(c1nc2c(Cl)cc(F)cc2[nH]1)N1CC2CCC(C1)N2CC(=O)NC(C)(C)C (centres unmarked) [Compound 201]
- pIC50: 7.07
- % Inhibition (Single Point Data) [1]: 95.763%

Compound: CC(C)(C)NC(=O)CN1C2CCC1CN(Cc1nc3c(C(F)F)cccc3[nH]1)C2 [Compound 202]
- % Inhibition (Single Point Data) [1]: 100.89%

Compound: CC(C)(C)NC(=O)CN1C2CCC1CN(Cc1nc3c(C4CC4)cccc3[nH]1)C2 [Compound 203]
- % Inhibition (Single Point Data) [1]: 94.049%

Compound: Cc1cccc2[nH]c(CN3CC4CC(C3)N4CCC3CCOCC3)nc12 [Compound 204]
- % Inhibition (Single Point Data) [1]: 3.6634%

Compound: Cc1cc(F)cc2[nH]c(CN3CC4CC(C3)N4CCC3CCOCC3)nc12 [Compound 205]
- % Inhibition (Single Point Data) [1]: 16.681%
- pIC50 [2]: 5.33

Compound: COc1ccc(Cl)c2nc(CN3CC4CC(C3)N4CC(=O)NC(C)(C)C)[nH]c12 [Compound 206]
- % Inhibition (Single Point Data) [1]: 95.576%
- pIC50 [2]: 6.81

Compound: Cc1ccc(F)c2[nH]c(CN3CC4CC(C3)N4CC(=O)NC(C)(C)C)nc12 [Compound 207]
- % Inhibition (Single Point Data) [1]: 97.657%
- pIC50 [2]: 6.92

Compound: COc1cccc(NC(=O)CN2CC3CC(C2)N3CC(=O)NC(C)(C)C)c1 [Compound 208]
- % Inhibition (Single Point Data) [1]: 51.139%
- pIC50 [2]: 6.00

Compound: CC(C)(C)NC(=O)CN1C2CC1CN(c1nc3c(Cl)cc(F)cc3[nH]1)C2 [Compound 209]
- % Inhibition (Single Point Data) [1]: 24.65%
- pIC50 [2]: 5.29

Compound: CC(C)(C)NC(=O)CN1C2CC1CN(C(=O)c1nc3c(Cl)cc(F)cc3[nH]1)C2 [Compound 210]
- pIC50 [2]: 5.72

Compound: COc1cc(F)cc(NC(=O)CN2CC3CC(C2)N3CC(=O)NC(C)(C)C)c1 [Compound 211]
- % Inhibition (Single Point Data) [1]: 81.284%
- pIC50 [2]: 6.63

Compound: CC(C)(C)NC(=O)CN1C2CC1CN(CC(=O)Nc1cc(F)ccc1Cl)C2 [Compound 213]
- % Inhibition (Single Point Data) [1]: 27.718%

Compound: Cc1cc(F)cc(NC(=O)CN2CC3CC(C2)N3CC(=O)NC(C)(C)C)c1 [Compound 215]
- % Inhibition (Single Point Data) [1]: 100%

Compound: CC(C)(C)NC(=O)CN1C2CC1CN(CC(=O)Nc1ccc(F)c(Cl)c1)C2 [Compound 216]
- % Inhibition (Single Point Data) [1]: 97.034%

Compound: Cc1ccc(Cl)c2nc(CN3CC4CC(C3)N4CC(=O)NC(C)(C)C)[nH]c12 [Compound 217]
- % Inhibition (Single Point Data) [1]: 100.76%

Compound: COc1ccc(F)cc1NC(=O)CN1CC2CC(C1)N2CC(=O)NC(C)(C)C [Compound 218]
- % Inhibition (Single Point Data) [1]: 36.544%
- pIC50 [2]: 5.54

Compound: CC(C)(C)NC(=O)CN1C2CC1CN(CC(=O)Nc1cc(F)ccc1C#N)C2 [Compound 219]
- % Inhibition (Single Point Data) [1]: 35.823%

Compound: CC(C)(C)NC(=O)CN1C2CC1CN(CC(=O)Nc1cc(F)cc(C#N)c1)C2 [Compound 220]
- % Inhibition (Single Point Data) [1]: 80.621%
- pIC50 [2]: 6.17

Compound: Cc1ccc(Cl)cc1NC(=O)CN1CC2CC(C1)N2CC(=O)NC(C)(C)C [Compound 221]
- % Inhibition (Single Point Data) [1]: 48.175%
- pIC50 [2]: 6.05

Compound: COc1ccc(F)c(NC(=O)CN2CC3CC(C2)N3CC(=O)NC(C)(C)C)c1 [Compound 222]
- % Inhibition (Single Point Data) [1]: 52.3%
- pIC50 [2]: 5.96

Compound: O=C(CN1CC2CC1CN2CC(=O)NC1(C(F)(F)F)CC1)Nc1cc(F)cc(Cl)c1 (centres unmarked) [Compound 223]
- % Inhibition (Single Point Data) [1]: 75.83%
- pIC50 [2]: 5.90

Compound: CC(C)(NC(=O)CN1C2CC1CN(CC(=O)Nc1cc(F)cc(OC(F)F)c1)C2)C(F)(F)F [Compound 224]
- % Inhibition (Single Point Data) [1]: 83.389%
- pIC50 [2]: 6.80

Compound: O=C(CN1CC2CC(C1)N2CC(F)(F)C1CCCCC1)Nc1cc(F)cc(Cl)c1 [Compound 226]
- % Inhibition (Single Point Data) [1]: 39.507%

Compound: O=C(CN1CC2CC1CN2CCNC(=O)C1(C(F)(F)F)CC1)Nc1cc(F)cc(Cl)c1 (centres unmarked) [Compound 227]
- % Inhibition (Single Point Data) [1]: 78.995%
- pIC50 [2]: 6.80

Compound: O=C(CN1CC2CC1CN2CCNC(=O)C1(C(F)(F)F)CCC1)Nc1cc(F)cc(Cl)c1 (centres unmarked) [Compound 228]
- % Inhibition (Single Point Data) [1]: 87.61%
- pIC50 [2]: 6.62

Compound: O=C(CN1CC2CC(C1)N2CCNC(=O)C1(C(F)(F)F)CCC1)Nc1cc(F)cc(Cl)c1 [Compound 229]
- % Inhibition (Single Point Data) [1]: 89.382%

Compound: CC(C)(C(=O)NCCN1C2CC1CN(CC(=O)Nc1cc(F)cc(Cl)c1)C2)C(F)(F)F [Compound 230]
- % Inhibition (Single Point Data) [1]: 96.987%

Compound: CC(C)(C)NC(=O)CN1CC2CC1CN2CC(=O)Nc1cc(F)cc(OC(F)F)c1 (centres unmarked) [Compound 231]
- % Inhibition (Single Point Data) [1]: 95.51%
- pIC50 [2]: 7.05

Compound: O=C(CN1CC2CC(C1)N2CCNC(=O)C1(C(F)(F)F)CC1)Nc1cc(F)cc(Cl)c1 [Compound 232]
- % Inhibition (Single Point Data) [1]: 98.914%
- pIC50 [2]: 6.86

Compound: CC(C)(C)NC(=O)CN1CC2CC1CN2CC(=O)Nc1ccc(F)c(Cl)c1 (centres unmarked) [Compound 233]
- % Inhibition (Single Point Data) [1]: 83.643%
- pIC50 [2]: 6.64

Compound: CC1(NC(=O)CN2CC3CC2CN3CC(=O)Nc2ccc(F)c(Cl)c2)CC1 (centres unmarked) [Compound 234]
- % Inhibition (Single Point Data) [1]: 51.647%
- pIC50 [2]: 5.90

Compound: CC(C)(NC(=O)CN1CC2CC1CN2CC(=O)Nc1ccc(F)c(Cl)c1)C(F)(F)F (centres unmarked) [Compound 235]
- % Inhibition (Single Point Data) [1]: 92.093%
- pIC50 [2]: 6.65

Compound: COc1cccc(NC(=O)CN2CC3CC2CN3CCNC(=O)C2(C(F)(F)F)CCC2)c1 (centres unmarked) [Compound 236]
- % Inhibition (Single Point Data) [1]: 65.449%
- pIC50 [2]: 6.27

Compound: COc1cccc(NC(=O)CN2CC3CC2CN3CCNC(=O)C2(C(F)(F)F)CC2)c1 (centres unmarked) [Compound 237]
- % Inhibition (Single Point Data) [1]: 35.987%

Compound: O=C(CN1CC2CC1CN2CC(=O)NC1(C(F)(F)F)CC1)Nc1ccc(F)c(Cl)c1 (centres unmarked) [Compound 238]
- % Inhibition (Single Point Data) [1]: 79.048%

Compound: CC1(NC(=O)CN2C3CC2CN(CC(=O)Nc2ccc(F)c(Cl)c2)C3)CC1 [Compound 239]
- % Inhibition (Single Point Data) [1]: 58.273%
- pIC50 [2]: 6.23

Compound: O=C(CN1CC2CC(C1)N2CC(=O)NC1(C(F)(F)F)CC1)Nc1ccc(F)c(Cl)c1 [Compound 240]
- % Inhibition (Single Point Data) [1]: 80.113%
- pIC50 [2]: 6.48

Compound: CC(C)(NC(=O)CN1C2CC1CN(CC(=O)Nc1ccc(F)c(Cl)c1)C2)C(F)(F)F [Compound 241]
- % Inhibition (Single Point Data) [1]: 101.68%

Compound: CC(C)(C)NC(=O)CN1C2CC1CN(CC(=O)Nc1ccc(F)c(OC(F)(F)F)c1)C2 [Compound 242]
- % Inhibition (Single Point Data) [1]: 93.661%
- pIC50 [2]: 6.75

Compound: O=C(CN1CC2CC(C1)N2CC(=O)NC1(C(F)(F)F)CC1)Nc1ccc(F)c(OC(F)(F)F)c1 [Compound 243]
- % Inhibition (Single Point Data) [1]: 93.979%
- pIC50 [2]: 6.86

Compound: CC(C)(C)NC(=O)CN1C2CC1CN(CC(=O)Nc1ccc(F)c(OC(F)F)c1)C2 [Compound 244]
- % Inhibition (Single Point Data) [1]: 90.346%
- pIC50 [2]: 6.75

Compound: O=C(CN1CC2CC(C1)N2CC(=O)NC1(C(F)(F)F)CC1)Nc1ccc(F)c(OC(F)F)c1 [Compound 245]
- pIC50: 7.01
- % Inhibition (Single Point Data) [1]: 96.987%

Compound: CC(C)(C)NC(=O)CN1C[C@H]2C[C@@H]1CN2CC(=O)Nc1ccc(F)c(OC(F)F)c1 [Compound 246]
- % Inhibition (Single Point Data) [1]: 49.246%
- pIC50 [2]: 5.97

Compound: CC(C)(C)NC(=O)CN1C[C@@H]2C[C@H]1CN2CC(=O)Nc1ccc(F)c(OC(F)F)c1 [Compound 247]
- % Inhibition (Single Point Data) [1]: 97.344%

Compound: COc1cc(NC(=O)CN2CC3CC(C2)N3CC(=O)NC(C)(C)C)ccc1F [Compound 248]
- % Inhibition (Single Point Data) [1]: 64.348%
- pIC50 [2]: 6.28

Compound: CC(C)(C)NC(=O)CN1C2CC1CN(CC(=O)Nc1ccc(F)c(C(F)(F)F)c1)C2 [Compound 249]
- % Inhibition (Single Point Data) [1]: 99.326%
- pIC50 [2]: 6.00

Compound: CC(C)(C)NC(=O)CN1C2CC1CN(CC(=O)Nc1ccc(F)c(C(F)F)c1)C2 [Compound 250]
- % Inhibition (Single Point Data) [1]: 86.981%
- pIC50 [2]: 6.42

Compound: O=C(CN1CC2CC(C1)N2CC(=O)NC1(C(F)(F)F)CC1)Nc1ccc(F)c(C(F)(F)F)c1 [Compound 251]
- % Inhibition (Single Point Data) [1]: 80.59%

Compound: O=C(CN1CC2CC(C1)N2CC(=O)NC1(C(F)(F)F)CC1)Nc1ccc(F)c(C(F)F)c1 [Compound 252]
- % Inhibition (Single Point Data) [1]: 72.234%
- pIC50 [2]: 6.24

Compound: CC(C)(C)NC(=O)CN1C[C@@H]2C[C@H]1CN2CC(=O)Nc1cccc(OC(F)F)c1 [Compound 253]
- % Inhibition (Single Point Data) [1]: 38.026%
- pIC50 [2]: 5.88

Compound: CC(C(=O)NC(C)(C)C)N1C2CC1CN(CC(=O)Nc1ccc(F)c(OC(F)F)c1)C2 (centres unmarked) [Compound 254]
- % Inhibition (Single Point Data) [1]: 93.503%
- pIC50 [2]: 6.94

Compound: CC(C(=O)Nc1ccc(F)c(OC(F)F)c1)N1CC2CC(C1)N2CC(=O)NC1(C(F)(F)F)CC1 (centres unmarked) [Compound 255]
- % Inhibition (Single Point Data) [1]: 66.406%
- pIC50 [2]: 6.37

Compound: CC(C(=O)Nc1ccc(F)c(OC(F)F)c1)N1CC2CC(C1)N2CC(=O)NC(C)(C)C (centres unmarked) [Compound 256]
- % Inhibition (Single Point Data) [1]: 100.73%

Compound: COc1cc(NC(=O)CN2CC3CC(C2)N3CC(=O)NC2(C(F)(F)F)CC2)ccc1F [Compound 257]
- % Inhibition (Single Point Data) [1]: 89.324%
- pIC50 [2]: 6.63
